According to PMC11642070, “OCTN1 (SLC22A4) as a Target of Heavy Metals: Its Possible Role in Microplastic Threats” (International Journal of Molecular Sciences, 2024):
Positions count from the first letter of the chain named.

Columns and labels:
[1] = according to ATSDR; ref https://www.atsdr.cdc.gov/toxprofiles; cited from earlier work
human OCTN1 = target: T1, human OCTN1 (Homo sapiens, UniProt Q9H015); assay type: biochemical; settings: 60 min; for IC50: OCTN1 WT proteoliposomes, 0.1 mM [14C]-TEA, read-out: IC50 (µM) on [14C]-TEA uptake
T1 construct: made in house; host or cells: E. coli Rosetta(DE3)pLysS
T1 sequence (Q9H015 1-551): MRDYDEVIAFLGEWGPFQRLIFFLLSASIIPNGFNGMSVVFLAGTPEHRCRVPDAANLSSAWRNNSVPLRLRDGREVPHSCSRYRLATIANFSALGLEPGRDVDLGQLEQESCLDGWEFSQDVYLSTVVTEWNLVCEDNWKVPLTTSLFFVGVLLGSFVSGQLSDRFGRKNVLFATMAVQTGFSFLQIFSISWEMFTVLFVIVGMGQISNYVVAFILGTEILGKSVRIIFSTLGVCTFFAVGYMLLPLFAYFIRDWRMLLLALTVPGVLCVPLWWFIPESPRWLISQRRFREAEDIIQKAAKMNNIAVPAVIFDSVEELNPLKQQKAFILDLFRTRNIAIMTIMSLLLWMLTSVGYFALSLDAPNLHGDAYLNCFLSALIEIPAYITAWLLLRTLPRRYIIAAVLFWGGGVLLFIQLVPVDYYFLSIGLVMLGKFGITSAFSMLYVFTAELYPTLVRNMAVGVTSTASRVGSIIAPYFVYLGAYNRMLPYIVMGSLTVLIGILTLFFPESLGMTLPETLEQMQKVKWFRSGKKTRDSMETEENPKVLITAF
Procedure: (§1) After desalting, the protein was reconstituted in liposomes. The composition of the initial mixture used for reconstitution was as follows: 50 µg of protein (or desalt buffer in liposomes without the incorporated protein), 80 µL of 10% C12E8, 120 µL of 10% egg yolk phospholipids with 25% cholesterol in the form of sonicated liposomes, 16 mM ATP disodium salt, and 5 mM BisTris/HCl (pH 7.5) in a final volume of 700 µL. The purified OCTN1 (WT or C-less mutant) was inserted in the liposomal membrane using the batch-wise technique. This procedure used 0.5 g of Amberlite XAD-4 to remove the detergent from mixed micelles consisting of proteins, phospholipids and detergent at 23 °C for 40 min at 1200 rpm, as previously described.
(§2) Proteoliposomes and liposomes (600 μL) were applied onto a Sephadex G-75 (Merck Life Science, Milan, Italy) column (0.7 cm diameter × 15 cm height) pre-equilibrated with 5 mM BIS-Tris/HCl (pH 8.0) and eluted with 600 μL of the same buffer. Samples of 100 μL each were prepared from the 600 μL pool. The transport was initiated by [^14C]-TEA or [^3H]-Ach at the concentration of 0.1 mM to the proteoliposome samples and stopped after 60 min according to the stop-inhibitor method. In the blank samples, the inhibitor (1 mM Hemicholinium-3) was added at time zero. After the transport time, each sample was applied onto a Sephadex G-75 column (0.6 cm diameter × 8 cm height) and pre-equilibrated with 50 mM NaCl to remove the radioactivity not taken up. Proteoliposomes were eluted with 50 mM NaCl (1 mL), added to 3 mL Pico-Fluor Plus, vortexed, and counted. The radioactivity in the blank samples was used to subtract background radioactivity from the protein-associated one.
All experimental data were derived from the mean of three independent experiments, and results were expressed as means ± SD. IC50 values were derived from data fitting the IC50 equation using Grafit v 5.0.13 software (Erithacus Software (v 5.0.13), East Grinstead, UK).

Cys-less OCTN1 = target: T2, Cys-less OCTN1 (Homo sapiens, UniProt Q9H015, C113A/C136A/C236A/C270A/C374A/C50A/C81A); assay: [14C]-TEA uptake by Cys-less OCTN1 mutant reconstituted in proteoliposomes; assay type: biochemical; settings: 100 µM metal (250 µM CrCl2), 0.1 mM [14C]-TEA, 60 min
T2 construct: made in house; host or cells: E. coli Rosetta(DE3)pLysS
T2 sequence (Q9H015 1-551 C50A/C81A/C113A/C136A/C236A/C270A/C374A): T1 sequence (Q9H015 1-551) with C50A, C81A, C113A, C136A, C236A, C270A, C374A
Procedure: The over-expression of OCTN1 wild type (WT) and C-less mutant proteins, as previously described in [17], has been performed in E. coli Rosetta(DE3)pLysS, as described in [60, 61].
as §1, with “This procedure used 0.5 g of Amberlite XAD-4 to remove the detergent from mixed micelles consisting of proteins, phospholipids and detergent at 23 °C for 40 min at 1200 rpm, as previously described.” left out
as §2, with “Samples of 100 μL each were prepared from the 600 μL pool. The transport was initiated by [^14C]-TEA or [^3H]-Ach at the concentration of 0.1 mM to the proteoliposome samples and stopped after 60 min according to the stop-inhibitor method. In the blank samples, the inhibitor (1 mM Hemicholinium-3) was added at time zero.” left out

For [Cr] [Chromium], the “Level of Toxicity” value [1] is listed as “+++”.

With O=[N+]([O-])[O-].O=[N+]([O-])[O-].[Pb+2] [Pb(NO3)2, Lead nitrate] the IC50 (human OCTN1) was 90 ± 19 µM.

For [Cl][Hg][Cl] [HgCl2, Mercury (II) chloride], the IC50 (human OCTN1) was 121 ± 7 µM.

For [Zn] [Zinc], the “Level of Toxicity” value [1] is given as “+”.

With [Cl][Cr][Cl] [CrCl2, Chromium (II) chloride] the “Effect of DTE and cysteine on the inhibition of [14C]-TEA transport by heavy metals” value (human OCTN1; 100 µM metal (250 µM CrCl2), 5 mM DTE or Cys) was “only exception”, the IC50 (human OCTN1) was 170 ± 15 µM and the “Inhibition of [14C]-TEA transport by Cys-less OCTN1” value (Cys-less OCTN1) was “only exception”.

In the case of [Cl][Cd][Cl] [CdCl2, Cadmium chloride], the IC50 (human OCTN1) is reported as 56 ± 4 µM.

In the case of [Cd] [Cadmium], the “Level of Toxicity” value [1] is given as “+++”.

With [Cl-].[Cl-].[Zn+2] [ZnCl2, Zinc chloride] the IC50 (human OCTN1) was 57 ± 17 µM.
